The values that follow come from paper PMC11011439, “Influence of Molecular Design on the Tumor Targeting and Biodistribution of PSMA-Binding Tracers Labeled with Technetium-99m” (International Journal of Molecular Sciences, 2024).

T1 sequence (Q04609 whole entry): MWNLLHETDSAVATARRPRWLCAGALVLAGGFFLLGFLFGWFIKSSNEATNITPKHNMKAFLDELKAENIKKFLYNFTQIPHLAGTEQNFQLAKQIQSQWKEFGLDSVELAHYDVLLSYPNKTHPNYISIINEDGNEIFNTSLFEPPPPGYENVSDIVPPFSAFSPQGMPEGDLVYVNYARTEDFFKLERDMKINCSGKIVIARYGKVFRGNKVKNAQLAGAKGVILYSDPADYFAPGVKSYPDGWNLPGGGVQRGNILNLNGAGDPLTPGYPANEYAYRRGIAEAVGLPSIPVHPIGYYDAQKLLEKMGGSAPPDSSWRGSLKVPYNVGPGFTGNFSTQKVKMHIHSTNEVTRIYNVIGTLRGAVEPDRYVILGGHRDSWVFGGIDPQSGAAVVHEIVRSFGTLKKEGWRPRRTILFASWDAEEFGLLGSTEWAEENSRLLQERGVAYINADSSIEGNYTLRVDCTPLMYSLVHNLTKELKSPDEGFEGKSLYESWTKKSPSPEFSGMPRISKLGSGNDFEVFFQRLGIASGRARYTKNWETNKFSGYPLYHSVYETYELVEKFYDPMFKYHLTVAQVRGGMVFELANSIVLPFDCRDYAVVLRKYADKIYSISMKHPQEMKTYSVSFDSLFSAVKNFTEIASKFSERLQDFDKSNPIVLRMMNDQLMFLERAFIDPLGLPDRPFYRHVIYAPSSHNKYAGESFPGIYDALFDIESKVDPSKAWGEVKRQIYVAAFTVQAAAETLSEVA

The first data set concerns the target T1, PSMA (Homo sapiens, UniProt Q04609).
T1 construct: expressed in transfected cells; host or cells: PC3-pip cells (from Prof. Martin G. Pomper, Johns Hopkins University)
Description: Real-time binding kinetics on living PC3-pip cells (LigandTracer Yellow). The conditions noted are these: 5 nM tracer, 1:2 interaction model, read-out: KD1. The procedure: The binding kinetics of [^99mTc]Tc-labeled BQ0411, BQ0412, and BQ0413 were measured in real time using LigandTracer Yellow Instruments (Ridgeview Instruments AB, Uppsala, Sweden) on PC3-pip cells, as described earlier. The activity binding was recorded at 5 nM on the radiolabeled tracers for 150 min. After measuring the binding kinetics, the medium containing the labeled tracer was replaced with fresh medium, and the dissociation was monitored over 7 h. […]
Turning to `CC(=O)N[C@@H](CCCCNC(=O)C[N]1C(=O)C[N]2C(=O)C[N]3C(=O)C[S][TcH]132=[O])C(=O)NCCCCCCCC(=O)N[C@@H](Cc1ccc(O)cc1)C(=O)N[C@@H](Cc1ccc2ccccc2c1)C(=O)NCCCC[C@H](NC(=O)N[C@@H](CCC(=O)O)C(=O)O)C(=O)O` [[^99mTc]Tc-BQ0412], the Kd was 0.44 nM.

For `CC(=O)NC(CCCCNC(=O)CNC(=O)C[N]1C(=O)C[N]2C(=O)C[N]3C(=O)C[S][TcH]132=[O])C(=O)NCCCCCCCC(=O)NC(Cc1ccc(O)cc1)C(=O)NC(Cc1ccc2ccccc2c1)C(=O)NCCCCC(NC(=O)NC(CCC(=O)O)C(=O)O)C(=O)O` (stereo not drawn) [[^99mTc]Tc-BQ0411], the Kd amounted to 0.604 nM.

Regarding `CC(=O)N[C@@H](CCCCNC(=O)CNC(=O)C(CCC(=O)O)[N]1C(=O)C(CCC(=O)O)[N]2C(=O)C(CCC(=O)O)[N]3C(=O)C[S][TcH]312=[O])C(=O)NCCCCCCCC(=O)N[C@@H](Cc1ccc(O)cc1)C(=O)N[C@@H](Cc1ccc2ccccc2c1)C(=O)NCCCC[C@H](NC(=O)N[C@@H](CCC(=O)O)C(=O)O)C(=O)O` (stereo partly drawn) [[^99mTc]Tc-BQ0413], the Kd turned out to be 0.089 nM.

Test system in the next data set: not given
Assay: not given
The conditions noted are these: of the [99mTc]Tc-labeled ligand; cited from earlier work.
Turning to `CC(=O)N[C@@H](CCCCNC(=O)CNC(=O)CNC(=O)CNC(=O)CNC(=O)CS)C(=O)NCCCCCCCC(=O)N[C@@H](Cc1ccc(O)cc1)C(=O)N[C@@H](Cc1ccc2ccccc2c1)C(=O)NCCCC[C@H](NC(=O)N[C@@H](CCC(=O)O)C(=O)O)C(=O)O` [BQ0411], the overall charge was −1.

Consider `CC(=O)N[C@@H](CCCCNC(=O)CNC(=O)CNC(=O)CNC(=O)CS)C(=O)NCCCCCCCC(=O)N[C@@H](Cc1ccc(O)cc1)C(=O)N[C@@H](Cc1ccc2ccccc2c1)C(=O)NCCCC[C@H](NC(=O)N[C@@H](CCC(=O)O)C(=O)O)C(=O)O` [BQ0412], for which the overall charge is −1.

Regarding `CC(=O)N[C@@H](CCCCNC(=O)CNC(=O)C(CCC(=O)O)NC(=O)C(CCC(=O)O)NC(=O)C(CCC(=O)O)NC(=O)CS)C(=O)NCCCCCCCC(=O)N[C@@H](Cc1ccc(O)cc1)C(=O)N[C@@H](Cc1ccc2ccccc2c1)C(=O)NCCCC[C@H](NC(=O)N[C@@H](CCC(=O)O)C(=O)O)C(=O)O` (stereo partly drawn) [BQ0413], the overall charge is −4.
